Converted amounts (≈) assume the structure as drawn.
Tests used:
[1] = test system: Staphylococcus aureus-SMITH (GC 4543); experiment: acute lethal infection in mice; assay type: in vivo; details: acute lethal infection, female CD-1 mice, intraperitoneal challenge, intravenous 30 min. after infection, 7 day survival
Procedure, shortened: (§1)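 Female CD-1 mice (20+/−2 gm) were infected intraperitoneally with enough bacteria, suspended in trypticase soy broth or hog gastric mucin, to kill untreated controls within 24-48 hr. Compound in saline or 5% dextrose was given intravenously 30 min post-infection, five mice per dose. ED50 came from pooled 7 day survival of 3 tests.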

[2] = test system: Streptococcus pneumoniae (GC 1894); experiment: acute lethal infection in mice; assay type: in vivo; details: female CD-1 mice, intraperitoneal challenge, intravenous 30 min. after infection, 7 day survival
Procedure, shortened: as §1

[3] = test system: Enterococcus sp.; experiment: in vitro antibacterial evaluation, MIC by broth dilution; assay type: cell-based; details: broth dilution, 18 hours at 35° C.
Procedure, shortened: (§2)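 Broth dilution per NCCLS standard M7-A2 in Muller-Hinton II […], with an inoculum of 5×10^5 CFU/mL and antibiotic spanning 64-0.06 μg/mL. The MIC is the lowest concentration that inhibits growth of the organism.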

[4] = test system: Staphylococcus sp.; experiment: as above; assay type: cell-based; details: broth dilution, 18 hours at 35° C.
Procedure, shortened: as §2

[5] = test system: Streptococcus sp.; experiment: as above; assay type: cell-based; details: broth dilution, 18 hours at 35° C.
Procedure, shortened: as §2

[6] = test system: Escherichia coli; experiment: as above; assay type: cell-based; details: 18 hours at 35° C.
Procedure, shortened: as §2

[7] = anatomic pathology (histopathology of heart and kidney) in mice; assay type: in vivo; details: CD-1 mice, 20 mg/kg intravenously daily for 9 days, necropsy day 10, microscopic histopathology
Protocol: Samples of tissues from necropsied mice were formalin-fixed, paraffin-embedded, sectioned, stained with hematoxylin and eosin, and examined microscopically. Histopathologic findings were recorded. These findings were subjectively graded on a scale corresponding to slight, mild, moderate, marked and severe as compared to untreated controls.

[8] = clinical pathology (serum clinical chemistry) in mice; assay type: in vivo; details: CD-1 mice, 20 mg/kg intravenously daily for 9 days, sera day 10
Protocol: 20-day-old CD-1 mice were divided into a vehicle control group (5 mice) and a treatment group (5 mice). Samples of glycopeptide antibiotics were administered at 20 mg/kg intravenously daily for 9 days.

## CC(c1ccccc1)C1NC(=O)CNC(=O)C(CO)NC(=O)C(C(O)C2CNC(=N)N2C2OC(CO)C(O)C(O)C2O)NC(=O)C(C(O)C2CNC(=N)N2)NC(=O)C(Cc2ccc(OC3OC(CO)C(OC4OC5COC(c6ccccc6)OC5C(O)C4O)C(O)C3O)cc2)NC1=O (centres unmarked) [Example 104, Cyclo[glycyl-3-methylphenylalanyl-O-[4-O-(4,6-O-benzylidenehexopyranosyl)hexopyranosyl]-tyrosyl-3-(2-iminoimidazolidin-4-yl)seryl-3-(3-hexopyranosyl-2-iminoimidazolidin-4-yl)-serylseryl]]
[1]
  median effective dose (ED50), Staphylococcus aureus-SMITH (GC 4543): 0.19 mg/kg
[2]
  median effective dose (ED50), Streptococcus pneumoniae (GC 1894): 0.22 mg/kg
[3]; Enterococcus avium (GC 4558)
  MIC Enterococcus avium (GC 4558): 2 to 4 µg/mL
[3]; Enterococcus faecalis (ATCC 29212)
  MIC Enterococcus faecalis (ATCC 29212): 2 to 4 µg/mL
[3]; Enterococcus faecalis (GC 2242)
  MIC Enterococcus faecalis (GC 2242): 2 µg/mL (≈ 1.45 µM)
[3]; Enterococcus faecalis (GC 2691)
  MIC Enterococcus faecalis (GC 2691): 4 µg/mL (≈ 2.89 µM)
[3]; Enterococcus faecalis (GC 3059)
  MIC Enterococcus faecalis (GC 3059): 4 µg/mL (≈ 2.89 µM)
[3]; Enterococcus faecalis (GC 4552)
  MIC Enterococcus faecalis (GC 4552): 4 µg/mL (≈ 2.89 µM)
[3]; Enterococcus faecalis (GC 4553)
  MIC Enterococcus faecalis (GC 4553): 4 µg/mL (≈ 2.89 µM)
[3]; Enterococcus faecalis (GC 4554)
  MIC Enterococcus faecalis (GC 4554): 4 µg/mL (≈ 2.89 µM)
[3]; Enterococcus faecalis (GC 6189)
  MIC Enterococcus faecalis (GC 6189): 2 µg/mL (≈ 1.45 µM)
[3]; Enterococcus faecium (GC 2243)
  MIC Enterococcus faecium (GC 2243): 2 µg/mL (≈ 1.45 µM)
[3]; Enterococcus faecium (GC 4556)
  MIC Enterococcus faecium (GC 4556): 2 to 4 µg/mL
[3]; Enterococcus faecium (GC 4557)
  MIC Enterococcus faecium (GC 4557): 2 µg/mL (≈ 1.45 µM)
[3]; strain ATCC 29212
  MIC Enterococcus faecalis (ATCC 29212): 2 to 4 µg/mL
[3]; strain GC 2242
  MIC Enterococcus faecalis (GC 2242): 2 µg/mL (≈ 1.45 µM)
[3]; strain GC 2243
  MIC Enterococcus faecium (GC 2243): 2 µg/mL (≈ 1.45 µM)
[3]; strain GC 2691
  MIC Enterococcus faecalis (GC 2691): 4 µg/mL (≈ 2.89 µM)
[3]; strain GC 3059
  MIC Enterococcus faecalis (GC 3059): 4 µg/mL (≈ 2.89 µM)
[3]; strain GC 4552
  MIC Enterococcus faecalis (GC 4552): 4 µg/mL (≈ 2.89 µM)
[3]; strain GC 4553
  MIC Enterococcus faecalis (GC 4553): 4 µg/mL (≈ 2.89 µM)
[3]; strain GC 4554
  MIC Enterococcus faecalis (GC 4554): 4 µg/mL (≈ 2.89 µM)
[3]; strain GC 4556
  MIC Enterococcus faecium (GC 4556): 2 to 4 µg/mL
[3]; strain GC 4557
  MIC Enterococcus faecium (GC 4557): 2 µg/mL (≈ 1.45 µM)
[3]; strain GC 4558
  MIC Enterococcus avium (GC 4558): 2 to 4 µg/mL
[3]; strain GC 6189
  MIC Enterococcus faecalis (GC 6189): 2 µg/mL (≈ 1.45 µM)
[4]
  MIC Coagulase Negative Staphylococcus (GC 4547): 1 µg/mL (≈ 0.723 µM)
  MIC Coagulase Negative Staphylococcus (GC 4548): 0.5 to 1 µg/mL
  MIC Coagulase Negative Staphylococcus (GC 4549): 0.5 µg/mL (≈ 0.361 µM)
  MIC Coagulase Negative Staphylococcus (GC 4551): 1 µg/mL (≈ 0.723 µM)
  MIC Coagulase Negative Staphylococcus (GC 6257): 0.5 µg/mL (≈ 0.361 µM)
  MIC Staphylococcus aureus (ATCC 29213): 1 µg/mL (≈ 0.723 µM)
  MIC Staphylococcus aureus (GC 1131): 2 µg/mL (≈ 1.45 µM)
  MIC Staphylococcus aureus (GC 3051): 1 µg/mL (≈ 0.723 µM)
  MIC Staphylococcus aureus (GC 3053): 1 µg/mL (≈ 0.723 µM)
  MIC Staphylococcus aureus (GC 4541): 1 µg/mL (≈ 0.723 µM)
  MIC Staphylococcus aureus (GC 4542): 0.5 µg/mL (≈ 0.361 µM)
  MIC Staphylococcus aureus (GC 4544): 1 µg/mL (≈ 0.723 µM)
  MIC Staphylococcus aureus (GC 4545): 0.5 to 1 µg/mL
  MIC Staphylococcus aureus-SMITH (GC 4543): 0.5 to 1 µg/mL
  MIC Staphylococcus haemolyticus (GC 4546): 0.5 µg/mL (≈ 0.361 µM)
[4]; strain GC 4546
  MIC Staphylococcus haemolyticus (GC 4546): 0.5 µg/mL (≈ 0.361 µM)
[4]; strain GC 4547
  MIC Coagulase Negative Staphylococcus (GC 4547): 1 µg/mL (≈ 0.723 µM)
[4]; strain GC 4548
  MIC Coagulase Negative Staphylococcus (GC 4548): 0.5 to 1 µg/mL
[4]; strain GC 4549
  MIC Coagulase Negative Staphylococcus (GC 4549): 0.5 µg/mL (≈ 0.361 µM)
[4]; strain GC 4551
  MIC Coagulase Negative Staphylococcus (GC 4551): 1 µg/mL (≈ 0.723 µM)
[4]; strain GC 6257
  MIC Coagulase Negative Staphylococcus (GC 6257): 0.5 µg/mL (≈ 0.361 µM)
[4]; strain SMITH GC 4543
  MIC Staphylococcus aureus-SMITH (GC 4543): 0.5 to 1 µg/mL
[4]; strain ATCC 29213
  MIC Staphylococcus aureus (ATCC 29213): 1 µg/mL (≈ 0.723 µM)
[4]; strain GC 1131
  MIC Staphylococcus aureus (GC 1131): 2 µg/mL (≈ 1.45 µM)
[4]; strain GC 3051
  MIC Staphylococcus aureus (GC 3051): 1 µg/mL (≈ 0.723 µM)
[4]; strain GC 3053
  MIC Staphylococcus aureus (GC 3053): 1 µg/mL (≈ 0.723 µM)
[4]; strain GC 4541
  MIC Staphylococcus aureus (GC 4541): 1 µg/mL (≈ 0.723 µM)
[4]; strain GC 4542
  MIC Staphylococcus aureus (GC 4542): 0.5 µg/mL (≈ 0.361 µM)
[4]; strain GC 4544
  MIC Staphylococcus aureus (GC 4544): 1 µg/mL (≈ 0.723 µM)
[4]; strain GC 4545
  MIC Staphylococcus aureus (GC 4545): 0.5 to 1 µg/mL
[5]; Streptococcus agalactiae (GC 4564)
  MIC Streptococcus agalactiae (GC 4564): <0.12 to 0.25 µg/mL
[5]; Streptococcus pneumoniae (ATCC 6301)
  MIC Streptococcus pneumoniae (ATCC 6301): <0.12 µg/mL
[5]; Streptococcus pneumoniae (GC 1894)
  MIC Streptococcus pneumoniae (GC 1894): <0.12 µg/mL
[5]; Streptococcus pneumoniae (GC 4565)
  MIC Streptococcus pneumoniae (GC 4565): <0.12 µg/mL
[5]; Streptococcus pyogenes (GC 4563)
  MIC Streptococcus pyogenes (GC 4563): <0.12 µg/mL
[5]; strain ATCC 6301
  MIC Streptococcus pneumoniae (ATCC 6301): <0.12 µg/mL
[5]; strain GC 1894
  MIC Streptococcus pneumoniae (GC 1894): <0.12 µg/mL
[5]; strain GC 4563
  MIC Streptococcus pyogenes (GC 4563): <0.12 µg/mL
[5]; strain GC 4564
  MIC Streptococcus agalactiae (GC 4564): <0.12 to 0.25 µg/mL
[5]; strain GC 4565
  MIC Streptococcus pneumoniae (GC 4565): <0.12 µg/mL
[6]; strain ATCC 25922
  MIC Escherichia coli (ATCC 25922): 32 to 64 µg/mL
[6]; strain GC 4559
  MIC Escherichia coli (GC 4559): 16 to 32 µg/mL
[6]; strain GC 4560
  MIC Escherichia coli (GC 4560): 0.5 to 1 µg/mL
[7]
  Anatomical Pathology (Day 10), Heart: +++
  Anatomical Pathology (Day 10), Kidney: +++
[8]
  Clinical Chemistry (Day 10) % of Control, AST: +87%
  Clinical Chemistry (Day 10) % of Control, BUN: +203%
  Clinical Chemistry (Day 10) % of Control, Creatinine: +65%
